Assay results published in US8802688B2, “Substituted acetyl-coa carboxylase inhibitors” (Pfizer Inc., priority 2011, dated 2014).

Experiments:
[1] = biological target: T1, recombinant human ACC2 (rhACC2) (Homo sapiens, UniProt O00763, V2141I); assay: recombinant hACC2 Transcreener ADP detection FP assay; format: biochemical; details: 50 μM ATP, 30 μM acetyl-CoA
T1 construct: a full length Cytomax clone of ACC2 was purchased from Cambridge Bioscience Limited; made in house; host or cells: CHO cells, tetracycline-induced (PcDNA5 FRT TO-TOPO)
T1 sequence (O00763 whole entry V2141I): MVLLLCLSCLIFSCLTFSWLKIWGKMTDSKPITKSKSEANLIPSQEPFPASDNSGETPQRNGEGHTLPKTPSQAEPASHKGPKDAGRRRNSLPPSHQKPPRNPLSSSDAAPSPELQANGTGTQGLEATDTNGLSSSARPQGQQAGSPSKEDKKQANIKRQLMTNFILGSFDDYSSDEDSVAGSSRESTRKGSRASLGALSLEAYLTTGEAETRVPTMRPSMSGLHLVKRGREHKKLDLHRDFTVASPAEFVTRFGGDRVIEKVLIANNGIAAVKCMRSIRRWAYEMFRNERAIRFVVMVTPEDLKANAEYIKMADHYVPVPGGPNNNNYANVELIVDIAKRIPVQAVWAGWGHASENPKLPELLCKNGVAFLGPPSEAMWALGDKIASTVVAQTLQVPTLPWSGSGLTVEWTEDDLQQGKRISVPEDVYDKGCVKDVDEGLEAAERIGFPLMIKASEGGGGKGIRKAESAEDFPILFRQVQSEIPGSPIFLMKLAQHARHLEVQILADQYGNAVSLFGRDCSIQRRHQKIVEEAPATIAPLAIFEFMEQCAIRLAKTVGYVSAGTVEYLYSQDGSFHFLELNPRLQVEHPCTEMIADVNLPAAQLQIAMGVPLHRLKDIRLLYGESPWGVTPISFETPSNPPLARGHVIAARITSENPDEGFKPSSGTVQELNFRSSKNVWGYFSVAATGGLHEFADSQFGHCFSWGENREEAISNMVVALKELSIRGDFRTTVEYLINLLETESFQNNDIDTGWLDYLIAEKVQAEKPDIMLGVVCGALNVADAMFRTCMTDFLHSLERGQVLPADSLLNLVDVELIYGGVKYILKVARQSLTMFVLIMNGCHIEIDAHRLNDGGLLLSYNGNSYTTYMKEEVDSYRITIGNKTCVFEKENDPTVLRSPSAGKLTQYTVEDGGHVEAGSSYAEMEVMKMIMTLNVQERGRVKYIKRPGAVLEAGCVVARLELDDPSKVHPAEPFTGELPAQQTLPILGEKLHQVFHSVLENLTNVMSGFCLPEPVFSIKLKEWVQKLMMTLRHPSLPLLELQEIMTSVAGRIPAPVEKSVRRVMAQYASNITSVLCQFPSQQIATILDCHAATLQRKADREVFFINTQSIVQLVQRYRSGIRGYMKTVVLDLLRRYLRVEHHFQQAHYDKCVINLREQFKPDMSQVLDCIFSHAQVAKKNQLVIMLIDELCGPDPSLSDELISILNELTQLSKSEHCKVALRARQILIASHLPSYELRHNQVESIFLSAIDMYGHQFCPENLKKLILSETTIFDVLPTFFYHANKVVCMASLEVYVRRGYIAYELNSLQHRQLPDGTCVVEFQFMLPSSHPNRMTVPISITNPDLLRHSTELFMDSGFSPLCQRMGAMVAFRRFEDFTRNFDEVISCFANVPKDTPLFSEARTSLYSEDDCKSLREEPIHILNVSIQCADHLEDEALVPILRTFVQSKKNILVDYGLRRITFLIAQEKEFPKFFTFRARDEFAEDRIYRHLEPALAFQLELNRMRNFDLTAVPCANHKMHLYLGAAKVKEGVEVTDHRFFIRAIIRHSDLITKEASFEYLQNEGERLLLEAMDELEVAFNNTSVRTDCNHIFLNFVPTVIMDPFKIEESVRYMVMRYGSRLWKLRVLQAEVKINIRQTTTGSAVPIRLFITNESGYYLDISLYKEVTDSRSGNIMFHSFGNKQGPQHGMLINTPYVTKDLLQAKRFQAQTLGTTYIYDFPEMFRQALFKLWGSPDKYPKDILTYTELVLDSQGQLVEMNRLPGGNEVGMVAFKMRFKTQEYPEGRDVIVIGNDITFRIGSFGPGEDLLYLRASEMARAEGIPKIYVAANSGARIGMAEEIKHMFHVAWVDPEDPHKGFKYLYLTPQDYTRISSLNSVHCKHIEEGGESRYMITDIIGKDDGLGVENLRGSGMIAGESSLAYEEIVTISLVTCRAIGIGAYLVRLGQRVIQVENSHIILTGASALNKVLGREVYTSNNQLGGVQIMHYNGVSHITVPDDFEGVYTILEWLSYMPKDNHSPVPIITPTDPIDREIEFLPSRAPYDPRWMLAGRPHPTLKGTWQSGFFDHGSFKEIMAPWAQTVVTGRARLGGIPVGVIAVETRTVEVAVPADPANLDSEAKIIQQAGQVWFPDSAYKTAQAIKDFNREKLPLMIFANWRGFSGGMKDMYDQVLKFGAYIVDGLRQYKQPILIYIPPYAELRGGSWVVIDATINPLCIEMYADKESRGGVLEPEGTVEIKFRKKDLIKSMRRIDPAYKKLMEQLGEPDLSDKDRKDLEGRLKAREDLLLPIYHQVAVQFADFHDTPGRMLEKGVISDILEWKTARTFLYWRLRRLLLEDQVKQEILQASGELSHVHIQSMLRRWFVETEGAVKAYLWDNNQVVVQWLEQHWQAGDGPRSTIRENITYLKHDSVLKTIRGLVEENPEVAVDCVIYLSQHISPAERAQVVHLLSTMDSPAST
Description: (§1) For example direct inhibition of ACC activity, for the compound of Formula (I) was determined using preparations of recombinant human ACC1 (rhACC1) and recombinant human ACC2 (rhACC2). Representative sequences of the recombinant human ACC1 and ACC2 that can be used in the assay are provided herein as SEQ ID NO. 1 and SEQ. ID NO. 2, respectively.
[3] Preparation of rhACC2. Human ACC2 inhibition was measured using purified recombinant human ACC2 (hrACC2). Briefly, a full length Cytomax clone of ACC2 was purchased from Cambridge Bioscience Limited and was sequenced and subcloned into PcDNA5 FRT TO-TOPO (Invitrogen, Carlsbad, Calif.). The ACC2 was expressed in CHO cells by tetracycline induction and harvested in 5 liters of DMEM/F12 with glutamine, biotin, hygromycin and blasticidin with 1 μg/mL tetracycline (Invitrogen, Carlsbad, Calif.). The conditioned medium containing ACC2 was then applied to a Softlink Soft Release Avidin column (Promega, Madison, Wis.) and eluted with 5 mM biotin. 4 mgs of ACC2 were eluted at a concentration of 0.05 mg/mL (determined by A280) with an estimated purity of 95% ([…]). The purified ACC2 was dialyzed in 50 mM Tris, 200 mM NaCl, 4 mM DTT, 2 mM EDTA, and 5% glycerol. The pooled protein was frozen and stored at −80° C., with no loss of activity upon thawing. For measurement of ACC2 activity and assessment of ACC2 inhibition, test compounds were dissolved in DMSO and added to the rhACC2 enzyme as a 5× stock with a final DMSO concentration of 1%.
[4] Measurement of human ACC2 inhibition. hACC2 was assayed in a Costar #3676 (Costar, Cambridge, Mass.) 384-well plate using the Transcreener ADP detection FP assay kit (Bellbrook Labs, Madison, Wis.) using the manufacturer's recommended conditions for a 50 uM ATP reaction. The final conditions for the assay were 50 mM HEPES, pH 7.2, 5 mM MgCl2, 5 mM tripotassium citrate, 2 mM DTT, 0.1 mg/mL BSA, 30 μM acetyl-CoA, 50 μM ATP, and 8 mM KHCO3. Typically, a 10 μl reaction was run for 50 min at 25° C., and 10 μl of Transcreener stop and detect buffer was added and the combination incubated at room temp for an additional 1 hour. The data was acquired on an Envision Fluorescence reader (Perkinelmer) using a 620 excitation Cy5 FP general dual mirror, 620 excitation Cy5 FP filter, 688 emission (S) and a 688 (P) emission filter.
(§2) The results using the recombinant hACC1 and recombinant hACC2 Transcreener assays described above are summarized in the table below for the Compounds of Formula (I) exemplified in the Examples above.

[2] = biological target: T2, recombinant human ACC1 (rhACC1) (Homo sapiens, UniProt Q13085, DEL44-44); assay: recombinant hACC1 Transcreener ADP detection FP assay; format: biochemical; details: 50 μM ATP, 30 μM acetyl-CoA
T2 construct: recombinant baculovirus containing full length human ACC1 cDNA; made in house; host or cells: SF9 insect cells, recombinant baculovirus
Description: as §1
[1] Preparation of rhACC1. Two liters of SF9 cells, infected with recombinant baculovirus containing full length human ACC1 cDNA, were suspended in ice-cold lysis buffer (25 mM Tris, pH 7.5; 150 mM NaCl; 10% glycerol; 5 mM imidazole (EMD Bioscience; Gibbstown, N.J.); 2 mM TCEP (BioVectra; Charlottetown, Canada); Benzonase nuclease (10000 U/100 g cell paste; Novagen; Madison, Wis.); EDTA-free protease inhibitor cocktail (1 tab/50 mL; Roche Diagnostics; Mannheim, Germany). Cells were lysed by 3 cycles of freeze-thaw and centrifuged at 40,000×g for 40 minutes (4° C.). Supernatant was directly loaded onto a HisTrap FF crude column (GE Healthcare; Piscataway, N.J.) and eluted with an imidazole gradient up to 0.5 M over 20 column volumes (CV). ACC1-containing fractions were pooled and diluted 1:5 with 25 mM Tris, pH 7.5, 2 mM TCEP, 10% glycerol and direct loaded onto a CaptoQ (GE Healthcare) column and eluted with an NaCl gradient up to 1 M over 20 CV's. Phosphate groups were removed from purified ACC1 by incubation with lambda phosphatase (100 U/10 μM target protein; New England Biolabs; Beverly, Mass.) for 14 hours at 4° C.; okadaic acid was added (1 μM final concentration; Roche Diagnostics) to inhibit the phosphatase. Purified ACC1 was exchanged into 25 mM Tris, pH 7.5, 2 mM TCEP, 10% glycerol, 0.5 M NaCl by 6 hour dialysis at 4° C. Aliquots were prepared and frozen at −80° C.
[2] Measurement of rhACC1 inhibition. hACC1 was assayed in a Costar #3676 (Costar, Cambridge, Mass.) 384-well plate using the Transcreener ADP detection FP assay kit (Bellbrook Labs, Madison, Wis.) using the manufacturer's recommended conditions for a 50 μM ATP reaction. The final conditions for the assay were 50 mM HEPES, pH 7.2, 10 mM MgCl2, 7.5 mM tripotassium citrate, 2 mM DTT, 0.1 mg/mL BSA, 30 μM acetyl-CoA, 50 μM ATP, and 10 mM KHCO3 Typically, a 10 μl reaction was run for 120 min at 25° C., and 10 μl of Transcreener stop and detect buffer was added and the combination incubated at room temp for an additional 1 hour. The data was acquired on a Envision Fluorescence reader (Perkinelmer) using a 620 excitation Cy5 FP general dual mirror, 620 excitation Cy5 FP filter, 688 emission (S) and a 688 (P) emission filter.
as §2

CC(C)n1ncc2c1C(=O)CC1(CCN(C(=O)c3ccc4c(C(N)=O)c[nH]c4c3)CC1)C2 [Example 1, 6-[(1-isopropyl-7-oxo-1,4,6,7-tetrahydro-1′H-spiro[indazole-5,4′-piperidin]-1′-yl)carbonyl]-1H-indole-3-carboxamide]
IC50 [1]: 1.4 nM | IC50 [2]: 6 nM

CC(C)n1ncc2c1C(=O)CC1(CCN(C(=O)c3ccc4[nH]nc(C(N)=O)c4c3)CC1)C2 [Example 2, 5-[(1-isopropyl-7-oxo-1,4,6,7-tetrahydro-1′H-spiro[indazole-5,4′-piperidin]-1′-yl)carbonyl]-1H-indazole-3-carboxamide]
IC50 [1]: 3.1 nM | IC50 [2]: 7.9 nM

CC(C)n1ncc2c1C(=O)CC1(CCN(C(=O)c3cnc4c(C(N)=O)c[nH]c4c3)CC1)C2 [Example 3, 6-[(1-isopropyl-7-oxo-1,4,6,7-tetrahydro-1′H-spiro[indazole-5,4′-piperidin]-1′-yl)carbonyl]-1H-pyrrolo[3,2-b]pyridine-3-carboxamide]
IC50 [1]: 13 nM | IC50 [2]: 32 nM

CC(C)n1ncc2c1C(=O)CC1(CCN(C(=O)c3ccc4c(C(N)=O)n[nH]c4c3)CC1)C2 [Example 4]
IC50 [1]: 2.9 nM | IC50 [2]: 6.5 nM

CC(C)n1ncc2c1C(=O)CC1(CCN(C(=O)c3cnc4[nH]cc(C(N)=O)c4c3)CC1)C2 [Example 5]
IC50 [1]: 5.8 nM | IC50 [2]: 17 nM

CC(C)n1ncc2c1C(=O)CC1(CCN(C(=O)c3ccc4[nH]cc(C(N)=O)c4c3)CC1)C2 [Example 7]
IC50 [1]: 1.6 nM | IC50 [2]: 5.6 nM

CC(C)n1ncc2c1C(=O)CC1(CCN(C(=O)c3ccc4[nH]c(N)nc4c3)CC1)C2 [Example 8]
IC50 [1]: 3.3 nM | IC50 [2]: 17 nM

CNC(=O)c1n[nH]c2ccc(C(=O)N3CCC4(CC3)CC(=O)c3c(cnn3C(C)C)C4)cc12 [Example 9]
IC50 [1]: 2.9 nM | IC50 [2]: 8.4 nM

CCNC(=O)c1n[nH]c2ccc(C(=O)N3CCC4(CC3)CC(=O)c3c(cnn3C(C)C)C4)cc12 [Example 10]
IC50 [1]: 2.7 nM | IC50 [2]: 6.1 nM

CC(C)n1ncc2c1C(=O)CC1(CCN(C(=O)c3ccc4[nH]nc(C(=O)NCC(F)(F)F)c4c3)CC1)C2 [Example 11]
IC50 [1]: 5.5 nM | IC50 [2]: 14 nM

CC(C)n1ncc2c1C(=O)CC1(CCN(C(=O)c3ccc4cc(C(N)=O)[nH]c4c3)CC1)C2 [Example 12]
IC50 [1]: 3 nM | IC50 [2]: 13 nM

CNc1ccc2ccc(C(=O)N3CCC4(CC3)CC(=O)c3c(cnn3C(C)C)C4)cc2n1 [Example 13]
IC50 [1]: 1.5 nM | IC50 [2]: 2.4 nM

CC(C)n1ncc2c1C(=O)CC1(CCN(C(=O)c3ccc4nc(N)ccc4c3)CC1)C2 [Example 15]
IC50 [1]: 2.6 nM | IC50 [2]: 14 nM

CC(C)n1ncc2c1C(=O)CC1(CCN(C(=O)c3cnc4c(Cl)c[nH]c4c3)CC1)C2 [Example 16]
IC50 [1]: 3.1 nM | IC50 [2]: 6.7 nM

CC(C)n1ncc2c1C(=O)CC1(CCN(C(=O)c3ccc4c(C#N)n[nH]c4c3)CC1)C2 [Example 17]
IC50 [1]: 11 nM | IC50 [2]: 19 nM

CC(C)n1ncc2c1C(=O)CC1(CCN(C(=O)c3cnc4[nH]nc(C(N)=O)c4c3)CC1)C2 [Example 18, 5-[(1-isopropyl-7-oxo-1,4,6,7-tetrahydro-1′H-spiro[indazole-5,4′-piperidin]-1′-yl)carbonyl]-1H-pyrazolo[3,4-b]pyridine-3-carboxamide]
IC50 [1]: 22 nM | IC50 [2]: 33 nM

CC(C)n1ncc2c1C(=O)CC1(CCN(C(=O)c3cnc4[nH]c(C(N)=O)cc4c3)CC1)C2 [Example 19, 5-[(1-isopropyl-7-oxo-1,4,6,7-tetrahydro-1′H-spiro[indazole-5,4′-piperidin]-1′-yl)carbonyl]-1H-pyrrolo[2,3-b]pyridine-2-carboxamide]
IC50 [1]: 15 nM | IC50 [2]: 63 nM

CNc1nc2cc(C(=O)N3CCC4(CC3)CC(=O)c3c(cnn3C(C)C)C4)ccc2[nH]1 [Example 20, 1-isopropyl-1′-{[2-(methylamino)-1H-benzimidazol-5-yl]carbonyl}-1,4-dihydrospiro[indazole-5,4′-piperidin]-7(6H)-one]
IC50 [1]: 3 nM | IC50 [2]: 13 nM

CC(C)n1ncc2c1C(=O)CC1(CCN(C(=O)c3ccc4[nH]c(C(N)=O)nc4c3)CC1)C2 [Example 21, 5-[(1-isopropyl-7-oxo-1,4,6,7-tetrahydro-1′H-spiro[indazole-5,4′-piperidin]-1′-yl)carbonyl]-1H-benzimidazole-2-carboxamide]
IC50 [1]: 6.7 nM | IC50 [2]: 47 nM

COc1cc2cc(C(=O)N3CCC4(CC3)CC(=O)c3c(cnn3C(C)C)C4)cnc2cc1C(N)=O [Example 22, 3-[(1-isopropyl-7-oxo-1,4,6,7-tetrahydro-1′H-spiro[indazole-5,4′-piperidin]-1′-yl)carbonyl]-6-methoxyquinoline-7-carboxamide]
IC50 [1]: 6.9 nM | IC50 [2]: 30 nM

CC(C)n1ncc2c1C(=O)CC1(CCN(C(=O)c3cnc4c(C#N)c[nH]c4c3)CC1)C2 [Example 23, 6-[(1-isopropyl-7-oxo-1,4,6,7-tetrahydro-1′H-spiro[indazole-5,4′-piperidin]-1′-yl)carbonyl]-1H-pyrrolo[3,2-b]pyridine-3-carbonitrile]
IC50 [1]: 15 nM | IC50 [2]: 32 nM

CC(C)n1ncc2c1C(=O)CC1(CCN(C(=O)c3cnc4ccc(OCC(N)=O)cc4c3)CC1)C2 [Example 24, 2-({3-[(1-isopropyl-7-oxo-1,4,6,7-tetrahydro-1′H-spiro[indazole-5,4′-piperidin]-1′-yl)carbonyl]quinolin-6-yl}oxy)acetamide]
IC50 [1]: 20 nM | IC50 [2]: 43 nM

CC(C)n1ncc2c1C(=O)CC1(CCN(C(=O)c3ccc4ccc(N)nc4c3)CC1)C2 [Example 25, 1′-[(2-aminoquinolin-7-yl)carbonyl]-1-isopropyl-1,4-dihydrospiro[indazole-5,4′-piperidin]-7(6H)-one]
IC50 [1]: 10 nM | IC50 [2]: 12 nM

CC(C)(C)n1ncc2c1C(=O)CC1(CCN(C(=O)c3ccc4[nH]nc(C(N)=O)c4c3)CC1)C2 [Example 26]
IC50 [1]: 2.1 nM | IC50 [2]: 7.4 nM

CC(C)(C)n1cc2c(n1)C(=O)CC1(CCN(C(=O)c3ccc4c(C(N)=O)n[nH]c4c3)CC1)C2 [Example 29]
IC50 [1]: 1.7 nM | IC50 [2]: 8.6 nM

CC(C)(C)n1cc2c(n1)C(=O)CC1(CCN(C(=O)c3cnc4[nH]cc(C(N)=O)c4c3)CC1)C2 [Example 30]
IC50 [1]: 2.6 nM | IC50 [2]: 9.4 nM
